# Laboratory results from patent publication US20240132431A1, “METHOD FOR ALKYLATING ACIDIC FUNCTIONAL GROUP” (Chugai Seiyaku Kabushiki Kaisha, priority 2021, published 2024).
# Target: T1, Bcl-2 protein (Recombinant Human Bcl-2 Protein) (Homo sapiens, UniProt P10415)
# T1 construct: purchased Novus NBP2-34889
# Assay: Binding evaluation of mixture library compounds to Bcl-2 using AS-MS (affinity selection mass spectrometry)
# Method in brief: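 ASMS Ratio (%) was calculated as (A−C)/B×100, where A is the protein sample after SEC, B the protein-free sample without SEC and C the protein-free sample after SEC. Each compound was at […] in a 1200-member pool with 20 μM Bcl-2, incubated 1 h at 23° C.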
# T1 sequence (P10415 whole entry): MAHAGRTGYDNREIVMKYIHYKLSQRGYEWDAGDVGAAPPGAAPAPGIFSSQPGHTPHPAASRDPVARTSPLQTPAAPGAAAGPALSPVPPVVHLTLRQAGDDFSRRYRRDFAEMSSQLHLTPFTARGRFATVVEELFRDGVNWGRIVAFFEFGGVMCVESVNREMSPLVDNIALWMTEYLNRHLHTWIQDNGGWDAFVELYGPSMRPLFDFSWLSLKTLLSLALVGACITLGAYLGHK
smiles,measurement,setting,value
"CCOc1cncc(-c2cc(OC)c(CN3CCN(c4ccc(C(=O)NS(=O)(=O)CCC(F)(F)F)cc4)CC3)c(OC)c2)c1 [B2N060-01, 4-[4-[[4-(5-Ethoxypyridin-3-yl)-2,6-dimethoxyphenyl]methyl]piperazin-1-yl]-N-(3,3,3-trifluoropropylsulfonyl)benzamide]",ASMS ratio (%),n = 1,0.0%
same,ASMS ratio (%),n = 2,0.0%
CCOc1cccc(-c2cc(CN3CCN(c4ccc(C(=O)NS(=O)(=O)CCC(F)(F)F)cc4)CC3)cc(C(F)(F)F)c2)c1 [B2N061-01],ASMS ratio (%),n = 1,0.0%
same,ASMS ratio (%),n = 2,0.0%
"CCOc1cncc(-c2cc(CN3CCN(c4ccc(C(=O)NS(=O)(=O)CCC(F)(F)F)cc4)CC3)cc(C(F)(F)F)c2)c1 [B2N062-01, 4-[4-[[3-(5-Ethoxypyridin-3-yl)-5-(trifluoromethyl)phenyl]methyl]piperazin-1-yl]-N-(3,3,3-trifluoropropylsulfonyl)benzamide]",ASMS ratio (%),n = 1,0.0%
same,ASMS ratio (%),n = 2,0.0%
"CCOc1cccc(-c2cc(CN3CCN(c4ccc(C(=O)NS(=O)(=O)CCC(F)(F)F)cc4)CC3)cc(OC(F)(F)F)c2)c1 [B2N063-01, 4-[4-[[3-(3-Ethoxyphenyl)-5-(trifluoromethoxy)phenyl]methyl]piperazin-1-yl]-N-(3,3,3-trifluoropropylsulfonyl)benzamide]",ASMS ratio (%),n = 1,−0.3%
same,ASMS ratio (%),n = 2,−3.8%
"CCOc1cncc(-c2cc(CN3CCN(c4ccc(C(=O)NS(=O)(=O)CCC(F)(F)F)cc4)CC3)cc(OC(F)(F)F)c2)c1 [B2N064-01, 4-[4-[[3-(5-Ethoxypyridin-3-yl)-5-(trifluoromethoxy)phenyl]methyl]piperazin-1-yl]-N-(3,3,3-trifluoropropylsulfonyl)benzamide]",ASMS ratio (%),n = 1,0.0%
same,ASMS ratio (%),n = 2,0.0%
CCOc1cccc(-c2ccc(CN3CCN(c4ccc(C(=O)NS(=O)(=O)CCC(F)(F)F)cc4)CC3)c3ccccc23)c1 [B2N065-01],ASMS ratio (%),n = 1,0.0%
same,ASMS ratio (%),n = 2,0.0%
"CCOc1cncc(-c2ccc(CN3CCN(c4ccc(C(=O)NS(=O)(=O)CCC(F)(F)F)cc4)CC3)c3ccccc23)c1 [B2N066-01, 4-[4-[[4-(5-Ethoxypyridin-3-yl)naphthalen-1-yl]methyl]piperazin-1-yl]-N-(3,3,3-trifluoropropylsulfonyl)benzamide]",ASMS ratio (%),n = 1,0.0%
same,ASMS ratio (%),n = 2,0.0%
"CCOc1cccc(-c2csc(CN3CCN(c4ccc(C(=O)NS(=O)(=O)CCC(F)(F)F)cc4)CC3)c2)c1 [B2N067-01, 4-[4-[[4-(3-Ethoxyphenyl)thiophen-2-yl]methyl]piperazin-1-yl]-N-(3,3,3-trifluoropropylsulfonyl)benzamide]",ASMS ratio (%),n = 1,0.0%
same,ASMS ratio (%),n = 2,0.0%
CCOc1cncc(-c2csc(CN3CCN(c4ccc(C(=O)NS(=O)(=O)CCC(F)(F)F)cc4)CC3)c2)c1 [B2N068-01],ASMS ratio (%),n = 1,0.0%
same,ASMS ratio (%),n = 2,0.5%
"CCOc1cccc(C#Cc2ccccc2CN2CCN(c3ccc(C(=O)NS(=O)(=O)CCC(F)(F)F)cc3)CC2)c1 [B2N069-01, 4-[4-[[2-[2-(3-Ethoxyphenyl)ethynyl]phenyl]methyl]piperazin-1-yl]-N-(3,3,3-trifluoropropylsulfonyl)benzamide]",ASMS ratio (%),n = 1,−1.8%
same,ASMS ratio (%),n = 2,−1.5%
"CCOc1cncc(C#Cc2ccccc2CN2CCN(c3ccc(C(=O)NS(=O)(=O)CCC(F)(F)F)cc3)CC2)c1 [B2N070-01, 4-[4-[[2-[2-(5-Ethoxypyridin-3-yl)ethynyl]phenyl]methyl]piperazin-1-yl]-N-(3,3,3-trifluoropropylsulfonyl)benzamide]",ASMS ratio (%),n = 1,0.0%
same,ASMS ratio (%),n = 2,0.0%
"CCOc1cccc(-c2ccccc2CN2CCN(c3ccc(C(=O)NS(=O)(=O)CCC(F)(F)F)nn3)CC2)c1 [B2N071-01, 6-[4-[[2-(3-Ethoxyphenyl)phenyl]methyl]piperazin-1-yl]-N-(3,3,3-trifluoropropylsulfonyl)pyridazine-3-carboxamide]",ASMS ratio (%),n = 1,0.0%
same,ASMS ratio (%),n = 2,0.0%
CCOc1cncc(-c2ccccc2CN2CCN(c3ccc(C(=O)NS(=O)(=O)CCC(F)(F)F)nn3)CC2)c1 [B2N072-01],ASMS ratio (%),n = 1,0.0%
same,ASMS ratio (%),n = 2,0.1%
"CCOc1cccc(-c2ccc(CN3CCN(c4ccc(C(=O)NS(=O)(=O)CCC(F)(F)F)nn4)CC3)cc2C)c1 [B2N073-01, 6-[4-[[4-(3-Ethoxyphenyl)-3-methylphenyl]methyl]piperazin-1-yl]-N-(3,3,3-trifluoropropylsulfonyl)pyridazine-3-carboxamide]",ASMS ratio (%),n = 1,0.0%
same,ASMS ratio (%),n = 2,0.0%
"CCOc1cncc(-c2ccc(CN3CCN(c4ccc(C(=O)NS(=O)(=O)CCC(F)(F)F)nn4)CC3)cc2C)c1 [B2N074-01, 6-[4-[[4-(5-Ethoxypyridin-3-yl)-3-methylphenyl]methyl]piperazin-1-yl]-N-(3,3,3-trifluoropropylsulfonyl)pyridazine-3-carboxamide]",ASMS ratio (%),n = 1,0.0%
same,ASMS ratio (%),n = 2,0.0%
"CCOc1cncc(-c2ccc(CN3CCN(c4ccc(C(=O)NS(=O)(=O)CCC(F)(F)F)nn4)CC3)c(CC)c2)c1 [B2N076-01, 6-[4-[[4-(5-Ethoxypyridin-3-yl)-2-ethylphenyl]methyl]piperazin-1-yl]-N-(3,3,3-trifluoropropylsulfonyl)pyridazine-3-carboxamide]",ASMS ratio (%),n = 1,0.0%
same,ASMS ratio (%),n = 2,0.0%
"CCOc1cccc(-c2ccc(CN3CCN(c4ccc(C(=O)NS(=O)(=O)CCC(F)(F)F)nn4)CC3)cc2F)c1 [B2N077-01, 6-[4-[[4-(3-Ethoxyphenyl)-3-fluorophenyl]methyl]piperazin-1-yl]-N-(3,3,3-trifluoropropylsulfonyl)pyridazine-3-carboxamide]",ASMS ratio (%),n = 1,0.0%
same,ASMS ratio (%),n = 2,0.0%
"CCOc1cncc(-c2ccc(CN3CCN(c4ccc(C(=O)NS(=O)(=O)CCC(F)(F)F)nn4)CC3)cc2F)c1 [B2N078-01, 6-[4-[[4-(5-Ethoxypyridin-3-yl)-3-fluorophenyl]methyl]piperazin-1-yl]-N-(3,3,3-trifluoropropylsulfonyl)pyridazine-3-carboxamide]",ASMS ratio (%),n = 1,0.0%
same,ASMS ratio (%),n = 2,0.0%
CCOc1cccc(-c2ccc(CN3CCN(c4ccc(C(=O)NS(=O)(=O)CCC(F)(F)F)nn4)CC3)c(OC)c2)c1 [B2N079-01],ASMS ratio (%),n = 1,0.0%
same,ASMS ratio (%),n = 2,0.0%
CCOc1cncc(-c2ccc(CN3CCN(c4ccc(C(=O)NS(=O)(=O)CCC(F)(F)F)nn4)CC3)c(OC)c2)c1 [B2N080-01],ASMS ratio (%),n = 1,0.0%
same,ASMS ratio (%),n = 2,0.0%
"CCOc1cccc(-c2cc(CN3CCN(c4ccc(C(=O)NS(=O)(=O)CCC(F)(F)F)nn4)CC3)cc(OCC)c2)c1 [B2N081-01, 6-[4-[[3-Ethoxy-5-(3-ethoxyphenyl)phenyl]methyl]piperazin-1-yl]-N-(3,3,3-trifluoropropylsulfonyl)pyridazine-3-carboxamide]",ASMS ratio (%),n = 1,0.0%
same,ASMS ratio (%),n = 2,0.0%
CCOc1cncc(-c2cc(CN3CCN(c4ccc(C(=O)NS(=O)(=O)CCC(F)(F)F)nn4)CC3)cc(OCC)c2)c1 [B2N082-01],ASMS ratio (%),n = 1,2.5%
same,ASMS ratio (%),n = 2,2.8%
"CCOc1cccc(-c2cc(CN3CCN(c4ccc(C(=O)NS(=O)(=O)CCC(F)(F)F)nn4)CC3)cc(OC(C)C)c2)c1 [B2N083-01, 6-[4-[[3-(3-Ethoxyphenyl)-5-propan-2-yloxyphenyl]methyl]piperazin-1-yl]-N-(3,3,3-trifluoropropylsulfonyl)pyridazine-3-carboxamide]",ASMS ratio (%),n = 1,0.0%
same,ASMS ratio (%),n = 2,0.0%
"CCOc1cncc(-c2cc(CN3CCN(c4ccc(C(=O)NS(=O)(=O)CCC(F)(F)F)nn4)CC3)cc(OC(C)C)c2)c1 [B2N084-01, 6-[4-[[3-(5-Ethoxypyridin-3-yl)-5-propan-2-yloxyphenyl]methyl]piperazin-1-yl]-N-(3,3,3-trifluoropropylsulfonyl)pyridazine-3-carboxamide]",ASMS ratio (%),n = 1,0.0%
same,ASMS ratio (%),n = 2,0.0%
CCOc1cccc(-c2cc(OC)c(CN3CCN(c4ccc(C(=O)NS(=O)(=O)CCC(F)(F)F)nn4)CC3)c(OC)c2)c1 [B2N085-01],ASMS ratio (%),n = 1,0.0%
same,ASMS ratio (%),n = 2,0.0%
"CCOc1cncc(-c2cc(OC)c(CN3CCN(c4ccc(C(=O)NS(=O)(=O)CCC(F)(F)F)nn4)CC3)c(OC)c2)c1 [B2N086-01, 6-[4-[[4-(5-Ethoxypyridin-3-yl)-2,6-dimethoxyphenyl]methyl]piperazin-1-yl]-N-(3,3,3-trifluoropropylsulfonyl)pyridazine-3-carboxamide]",ASMS ratio (%),n = 1,0.0%
same,ASMS ratio (%),n = 2,0.0%
CCOc1cccc(-c2cc(CN3CCN(c4ccc(C(=O)NS(=O)(=O)CCC(F)(F)F)nn4)CC3)cc(C(F)(F)F)c2)c1 [B2N087-01],ASMS ratio (%),n = 1,0.0%
same,ASMS ratio (%),n = 2,0.0%
"CCOc1cncc(-c2cc(CN3CCN(c4ccc(C(=O)NS(=O)(=O)CCC(F)(F)F)nn4)CC3)cc(C(F)(F)F)c2)c1 [B2N088-01, 6-[4-[3-(5-Ethoxypyridin-3-yl)-5-(trifluoromethyl)phenylmethyl]piperazin-1-yl]-N-(3,3,3-trifluoropropylsulfonyl)pyridazine-3-carboxamide]",ASMS ratio (%),n = 1,0.0%
same,ASMS ratio (%),n = 2,0.0%
"CCOc1cccc(-c2cc(CN3CCN(c4ccc(C(=O)NS(=O)(=O)CCC(F)(F)F)nn4)CC3)cc(OC(F)(F)F)c2)c1 [B2N089-01, 6-[4-[[3-(3-Ethoxyphenyl)-5-(trifluoromethoxy)phenyl]methyl]piperazin-1-yl]-N-(3,3,3-trifluoropropylsulfonyl)pyridazine-3-carboxamide]",ASMS ratio (%),n = 2,0.0%
"CCOc1cncc(-c2cc(CN3CCN(c4ccc(C(=O)NS(=O)(=O)CCC(F)(F)F)nn4)CC3)cc(OC(F)(F)F)c2)c1 [B2N090-01, 6-[4-[[3-(5-Ethoxypyridin-3-yl)-5-(trifluoromethoxy)phenyl]methyl]piperazin-1-yl]-N-(3,3,3-trifluoropropylsulfonyl)pyridazine-3-carboxamide]",ASMS ratio (%),n = 1,0.0%
same,ASMS ratio (%),n = 2,0.0%
